Measurements reported in ChEMBL document CHEMBL5029164, “JNJ-67569762, A 2-Aminotetrahydropyridine-Based Selective BACE1 Inhibitor Targeting the S3 Pocket: From Discovery to Clinical Candidate” (J Med Chem, 2021).

Target: T1, Beta-secretase 2 (Homo sapiens, UniProt Q9Y5Z0)
T1 sequence (Q9Y5Z0 whole entry): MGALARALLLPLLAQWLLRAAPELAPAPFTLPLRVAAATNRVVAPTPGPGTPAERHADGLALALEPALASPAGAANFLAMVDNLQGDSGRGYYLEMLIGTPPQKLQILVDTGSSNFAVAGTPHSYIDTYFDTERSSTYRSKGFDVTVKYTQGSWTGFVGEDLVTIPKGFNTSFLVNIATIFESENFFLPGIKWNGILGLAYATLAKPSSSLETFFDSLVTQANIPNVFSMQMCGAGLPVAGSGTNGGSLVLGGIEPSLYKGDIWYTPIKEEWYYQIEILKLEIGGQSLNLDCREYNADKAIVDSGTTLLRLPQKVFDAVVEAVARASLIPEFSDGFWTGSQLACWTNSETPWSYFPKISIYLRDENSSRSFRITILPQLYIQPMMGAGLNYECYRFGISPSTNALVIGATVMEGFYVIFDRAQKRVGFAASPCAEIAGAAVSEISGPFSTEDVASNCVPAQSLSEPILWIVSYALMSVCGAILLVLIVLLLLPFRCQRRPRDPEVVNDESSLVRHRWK
Experiment: Displacement of [3H]-JNJ962 from BACE2 (unknown origin) expressed in HEK293 cell membrane assessed as inhibition constant by scintillation counting analysis
Assay type: cell membranes

Compound `CCS(=O)(=O)[C@]1(C)CC[C@@](CF)(c2cc(NC(=O)c3cc4c(cn3)OC(F)(F)O4)ccc2F)N=C1N` has a Ki of 0.05 µM.
